Like-named read-outs stand apart in the source and are kept apart here.
Key:
[1] = molecular target: T1, EGFR (ErbB1) T790M L858R (Homo sapiens, UniProt P00533, L858R/T790M); experiment: In vitro kinase assay (Z'-LYTE), EGFR (ErbB1) T790M L858R; assay type: biochemical; conditions: read-out: % of inhibition of the kinase compared to the control
T1 construct: purchased Invitrogen
Protocol: 1) In Vitro Kinase Assays (Table 10 to Table 21)
The inhibitory activity of the compounds on several kinases including BRAF, EGFR (ErbB1), EGFR (ErbB1) T790M L858R, FGFR2, KDR (VEGFR2), PDGFRA (PDGFR alpha), SRC and other was evaluated by Invitrogen using the Z′-LYTE® technology. Briefly, the Z′-LYTE® biochemical assay employs a fluorescence-based, coupled-enzyme format and is based on the differential sensitivity of phosphorylated and non-phosphorylated peptides to proteolytic cleavage. The peptide substrate is labeled with two fluorophores—one at each end—that make up a FRET pair. A ratiometric method, which calculates the ratio (the Emission Ratio) of donor emission to acceptor emission after excitation of the donor fluorophore at 400 nm, is used to quantitate reaction progress.
The compounds are screened in 1% DMSO (final) in the well. For 10 point titrations, 3-fold serial dilutions are conducted from the starting concentration. All Peptide/Kinase Mixtures are diluted to a 2× working concentration in the appropriate Kinase Buffer. All ATP Solutions are diluted to a 4× working concentration in Kinase Buffer (50 mM HEPES pH 7.5, 0.01% BRIJ-35, 10 mM MgCl2, 1 mM EGTA). ATP Km apparent is previously determined using a Z′-LYTE® assay.
Each compound was incubated at a concentration of 100 nM (excepted to test the activity against ABL and ABL T315I for which the compounds were incubated at a concentration of 10 μM) and the tables 10 to 21 summarize the results obtained showing the inhibitory power of a compound.

[2] = molecular target: T2, FGFR2 (Homo sapiens, UniProt P21802); experiment: In vitro kinase assay (Z'-LYTE), FGFR2; assay type: biochemical; conditions: read-out: % of inhibition of the kinase compared to the control
T2 construct: purchased Invitrogen
How it was run: (§1)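 Z'-LYTE, HEPES pH 7.5/MgCl2/EGTA/BRIJ-35 buffer, 1% DMSO; cpd 100 nM (ABL, ABL T315I: 10 μM); ratiometric FRET read-out after protease development; % inhibition.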

[3] = test system: A549 cell line; experiment: In vitro cell proliferation assay (MTT), A549; assay type: cell-based; conditions: Homo sapiens, A549, 72 h; read-out: EC50, anti-proliferative activity
Protocol: (§2) 2) In Vitro Cell Proliferation Assays (Table 22 to Table 35)
(§3) Cancer cell lines (5×10^3 cells per well) or HUVEC (1×10^4 cells per well) or HRMEC (1×10^4 cells per well) were distributed in 96-well plates and incubating in duplicate with escalating concentrations (10 nM to 3 μM) of compounds for 72 hr. Cell proliferation was measured using MTT (3[4,5-dimethylthiazol-2-yl]-2,5-diphenyltetrazolium bromide).

[4] = test system: HepG2 cell line; experiment: In vitro cell proliferation assay (MTT), HepG2; assay type: cell-based; conditions: Homo sapiens, HepG2, 72 h; read-out: EC50, anti-proliferative activity
How it was run: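 MTT readout of proliferation after 72 hr compound exposure; tumour lines 5×10^3 cells/well, HRMEC 1×10^4 cells/well; dose range 10 nM–3 μM, duplicates.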

[5] = test system: MDA-MB-231 cell line; experiment: In vitro cell proliferation assay (MTT), MDA-MB-231; assay type: cell-based; conditions: Homo sapiens, MDA-MB-231, 72 h; read-out: EC50, anti-proliferative activity
Protocol: as §2, §3

[6] = test system: HUVEC; experiment: In vitro cell proliferation assay (MTT), HUVEC; assay type: cell-based; conditions: Homo sapiens, 72 h, read-out: EC50, anti-proliferative activity
How it was run: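 Anti-proliferative effects on human umbilical vein endothelial cells were assessed by an MTT (3[4,5-dimethylthiazol-2-yl]-2,5-diphenyltetrazolium bromide) readout. Cells (1×10^4 cells per well) in 96-well plates were incubated in duplicate for 72 hr with escalating test compound concentrations spanning 10 nM to 3 μM.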

[7] = test system: HeLa cell line; experiment: In vitro cell proliferation assay (MTT), HeLa; assay type: cell-based; conditions: Homo sapiens, read-out: EC50, anti-proliferative activity
Protocol: as §2, §3

[8] = test system: HRMEC cells; experiment: In vitro cell proliferation assay (MTT), HRMEC; assay type: cell-based; conditions: 72 h, read-out: EC50, anti-proliferative activity
Protocol: as §2, §3

[9] = test system: H1975 cell line; experiment: In vitro cell proliferation assay (MTT), H1975; assay type: cell-based; conditions: Homo sapiens, NCI-H1975, 72 h; read-out: EC50, anti-proliferative activity
Protocol: as §2, §3

[10] = test system: BxPC-3 cell line; experiment: In vitro cell proliferation assay (MTT), BxPC-3; assay type: cell-based; conditions: Homo sapiens, BXPC-3, 72 h; read-out: EC50, anti-proliferative activity
Protocol: as §2, §3

[11] = molecular target: T3, SRC (Homo sapiens, UniProt P12931); experiment: In vitro kinase assay (Z'-LYTE), SRC; assay type: biochemical; conditions: read-out: % of inhibition of the kinase compared to the control
T3 construct: purchased Invitrogen
How it was run: as §1

[12] = test system: HT29 cell line; experiment: In vitro cell proliferation assay (MTT), HT29; assay type: cell-based; conditions: Homo sapiens, HT-29, 72 h; read-out: EC50, anti-proliferative activity
Protocol: as §2, §3

[13] = test system: HuCCT1 cell line; experiment: In vitro cell proliferation assay (MTT), HuCCT1; assay type: cell-based; conditions: Homo sapiens, HuCCT-1, 72 h; read-out: EC50, anti-proliferative activity
Protocol: as §2, §3

[14] = test system: HuH7 cell line; experiment: In vitro cell proliferation assay (MTT), HuH7; assay type: cell-based; conditions: Homo sapiens, Huh-7, 72 h; read-out: EC50, anti-proliferative activity
Protocol: as §2, §3

[15] = molecular target: T4, EGFR (ErbB1) (Homo sapiens, UniProt P00533); experiment: In vitro kinase assay (Z'-LYTE), EGFR (ErbB1); assay type: biochemical; conditions: read-out: % of inhibition of the kinase compared to the control
T4 construct: purchased Invitrogen
How it was run: as §1

[16] = test system: HuH6 Clone 5 cell line; experiment: In vitro cell proliferation assay (MTT), HuH6 Clone 5; assay type: cell-based; conditions: HUH-6-clone5, 72 h; read-out: EC50, anti-proliferative activity
Protocol: as §2, §3

[17] = molecular target: T5, PDGFRA (PDGFR alpha) (Homo sapiens, UniProt P16234); experiment: In vitro kinase assay (Z'-LYTE), PDGFRA; assay type: biochemical; conditions: read-out: % of inhibition of the kinase compared to the control
T5 construct: purchased Invitrogen
How it was run: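 Inhibition read as emission ratio (donor/acceptor, 400 nm excitation) of a FRET-labelled peptide, phosphorylation protecting it from proteolytic cleavage. Compounds tested once at 100 nM for VEGFR1 and PDGFRA, at 10 μM for ABL and ABL T315I, 1% DMSO final. ATP at previously determined apparent Km.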

[18] = molecular target: T6, KDR (VEGFR2) (Homo sapiens, UniProt P35968); experiment: In vitro kinase assay (Z'-LYTE), KDR (VEGFR2); assay type: biochemical; conditions: read-out: % of inhibition of the kinase compared to the control
T6 construct: purchased Invitrogen
How it was run: as §1

[19] = molecular target: T7, BRAF (Homo sapiens, UniProt P15056); experiment: In vitro kinase assay (Z'-LYTE), BRAF; assay type: biochemical; conditions: read-out: % of inhibition of the kinase compared to the control
T7 construct: purchased Invitrogen
How it was run: as §1

T1 sequence (P00533 25-1210 T790M/L858R): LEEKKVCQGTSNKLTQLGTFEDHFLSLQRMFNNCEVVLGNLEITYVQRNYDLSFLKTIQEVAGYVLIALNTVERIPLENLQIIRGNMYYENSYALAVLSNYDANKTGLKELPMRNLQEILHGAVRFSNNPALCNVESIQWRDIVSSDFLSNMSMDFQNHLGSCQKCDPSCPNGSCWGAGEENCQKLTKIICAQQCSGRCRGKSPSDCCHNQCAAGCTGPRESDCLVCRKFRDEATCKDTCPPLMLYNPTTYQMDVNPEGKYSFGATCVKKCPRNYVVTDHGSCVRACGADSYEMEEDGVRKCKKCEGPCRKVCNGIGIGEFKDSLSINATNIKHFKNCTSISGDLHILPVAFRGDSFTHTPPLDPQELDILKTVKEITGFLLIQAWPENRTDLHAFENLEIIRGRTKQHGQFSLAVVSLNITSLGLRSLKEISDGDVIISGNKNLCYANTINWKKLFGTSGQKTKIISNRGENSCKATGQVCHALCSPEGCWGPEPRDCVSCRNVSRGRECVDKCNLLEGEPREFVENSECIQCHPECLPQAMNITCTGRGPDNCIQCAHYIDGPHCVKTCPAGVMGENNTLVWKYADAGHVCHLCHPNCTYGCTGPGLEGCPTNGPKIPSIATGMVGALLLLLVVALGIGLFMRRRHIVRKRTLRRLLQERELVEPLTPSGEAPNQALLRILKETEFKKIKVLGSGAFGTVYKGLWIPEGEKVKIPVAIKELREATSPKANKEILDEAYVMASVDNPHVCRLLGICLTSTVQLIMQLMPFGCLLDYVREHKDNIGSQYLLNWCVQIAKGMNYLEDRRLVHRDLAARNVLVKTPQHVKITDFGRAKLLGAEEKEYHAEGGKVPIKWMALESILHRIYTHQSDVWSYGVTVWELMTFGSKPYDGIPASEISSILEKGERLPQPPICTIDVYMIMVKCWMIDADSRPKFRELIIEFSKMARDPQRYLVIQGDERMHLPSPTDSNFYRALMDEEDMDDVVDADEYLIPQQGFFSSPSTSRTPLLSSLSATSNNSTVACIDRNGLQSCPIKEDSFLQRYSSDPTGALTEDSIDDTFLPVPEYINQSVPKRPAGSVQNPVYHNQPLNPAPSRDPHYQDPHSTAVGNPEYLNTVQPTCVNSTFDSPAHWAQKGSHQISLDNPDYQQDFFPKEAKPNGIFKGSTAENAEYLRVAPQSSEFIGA
T6 sequence (P35968 20-1356): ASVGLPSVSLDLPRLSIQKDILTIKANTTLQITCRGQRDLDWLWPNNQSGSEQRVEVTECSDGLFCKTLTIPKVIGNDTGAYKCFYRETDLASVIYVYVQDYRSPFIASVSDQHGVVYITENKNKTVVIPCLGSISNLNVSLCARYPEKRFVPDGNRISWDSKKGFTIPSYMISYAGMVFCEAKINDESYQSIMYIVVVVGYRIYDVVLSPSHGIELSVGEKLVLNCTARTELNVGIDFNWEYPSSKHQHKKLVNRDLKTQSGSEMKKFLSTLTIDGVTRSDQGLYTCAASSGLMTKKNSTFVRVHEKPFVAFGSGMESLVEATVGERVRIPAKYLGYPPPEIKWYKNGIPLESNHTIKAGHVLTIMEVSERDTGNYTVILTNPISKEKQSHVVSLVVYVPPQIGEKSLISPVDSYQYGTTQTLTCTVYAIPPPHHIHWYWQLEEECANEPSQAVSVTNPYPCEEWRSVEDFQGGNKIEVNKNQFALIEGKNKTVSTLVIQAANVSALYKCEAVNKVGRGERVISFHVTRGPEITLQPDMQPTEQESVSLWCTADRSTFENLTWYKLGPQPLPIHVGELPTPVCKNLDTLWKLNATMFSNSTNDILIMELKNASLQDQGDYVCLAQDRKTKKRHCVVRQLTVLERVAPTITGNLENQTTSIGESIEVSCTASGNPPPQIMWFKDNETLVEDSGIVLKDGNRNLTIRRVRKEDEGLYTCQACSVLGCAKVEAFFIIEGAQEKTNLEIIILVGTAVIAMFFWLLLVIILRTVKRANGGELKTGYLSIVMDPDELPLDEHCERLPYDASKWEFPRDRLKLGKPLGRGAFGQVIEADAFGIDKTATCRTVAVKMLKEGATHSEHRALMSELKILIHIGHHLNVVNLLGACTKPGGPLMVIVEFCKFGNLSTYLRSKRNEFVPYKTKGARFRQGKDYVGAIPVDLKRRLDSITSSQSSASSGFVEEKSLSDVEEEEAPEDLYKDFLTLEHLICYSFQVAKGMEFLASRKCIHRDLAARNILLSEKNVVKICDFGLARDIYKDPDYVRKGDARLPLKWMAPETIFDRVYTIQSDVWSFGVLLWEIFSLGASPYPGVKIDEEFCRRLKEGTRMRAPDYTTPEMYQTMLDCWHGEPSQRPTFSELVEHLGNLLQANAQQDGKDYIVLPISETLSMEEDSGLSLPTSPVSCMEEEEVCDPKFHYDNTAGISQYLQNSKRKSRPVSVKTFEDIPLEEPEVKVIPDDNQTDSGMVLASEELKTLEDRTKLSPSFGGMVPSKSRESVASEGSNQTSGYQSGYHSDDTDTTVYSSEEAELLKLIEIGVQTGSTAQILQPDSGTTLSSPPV
T2 sequence (P21802 22-821): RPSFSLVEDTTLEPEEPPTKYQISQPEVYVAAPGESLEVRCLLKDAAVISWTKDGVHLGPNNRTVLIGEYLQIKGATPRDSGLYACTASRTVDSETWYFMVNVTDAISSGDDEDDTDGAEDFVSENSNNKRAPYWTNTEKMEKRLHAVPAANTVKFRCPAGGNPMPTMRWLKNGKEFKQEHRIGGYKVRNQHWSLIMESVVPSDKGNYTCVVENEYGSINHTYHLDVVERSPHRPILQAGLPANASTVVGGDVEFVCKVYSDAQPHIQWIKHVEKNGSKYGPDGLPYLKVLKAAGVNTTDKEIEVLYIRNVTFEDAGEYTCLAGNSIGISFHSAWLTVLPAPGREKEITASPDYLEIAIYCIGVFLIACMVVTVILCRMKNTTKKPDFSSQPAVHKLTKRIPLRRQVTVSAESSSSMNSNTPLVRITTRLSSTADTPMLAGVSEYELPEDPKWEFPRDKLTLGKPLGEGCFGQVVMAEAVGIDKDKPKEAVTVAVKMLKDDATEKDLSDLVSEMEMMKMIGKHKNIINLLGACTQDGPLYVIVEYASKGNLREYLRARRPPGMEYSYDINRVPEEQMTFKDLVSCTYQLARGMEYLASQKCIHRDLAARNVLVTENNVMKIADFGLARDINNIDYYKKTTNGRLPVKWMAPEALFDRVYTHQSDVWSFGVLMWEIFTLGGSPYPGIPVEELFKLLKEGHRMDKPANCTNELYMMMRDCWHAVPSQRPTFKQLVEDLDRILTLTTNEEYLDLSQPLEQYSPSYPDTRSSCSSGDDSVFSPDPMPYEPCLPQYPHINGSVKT
T3 sequence (P12931 whole entry): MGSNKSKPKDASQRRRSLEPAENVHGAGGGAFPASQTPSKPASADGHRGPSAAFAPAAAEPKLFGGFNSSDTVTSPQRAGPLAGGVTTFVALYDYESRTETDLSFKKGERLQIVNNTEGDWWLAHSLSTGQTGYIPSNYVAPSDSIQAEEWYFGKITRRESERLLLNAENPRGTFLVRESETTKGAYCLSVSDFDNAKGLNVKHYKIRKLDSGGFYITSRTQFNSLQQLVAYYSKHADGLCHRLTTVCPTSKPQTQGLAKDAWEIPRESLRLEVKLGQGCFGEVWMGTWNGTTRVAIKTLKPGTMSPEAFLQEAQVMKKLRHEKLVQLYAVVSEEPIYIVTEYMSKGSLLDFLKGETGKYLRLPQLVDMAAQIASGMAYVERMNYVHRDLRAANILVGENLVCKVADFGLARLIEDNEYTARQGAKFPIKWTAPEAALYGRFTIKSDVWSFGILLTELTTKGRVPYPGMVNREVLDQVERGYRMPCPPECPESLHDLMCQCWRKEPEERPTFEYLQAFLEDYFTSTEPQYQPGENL
T5 sequence (P16234 24-1089): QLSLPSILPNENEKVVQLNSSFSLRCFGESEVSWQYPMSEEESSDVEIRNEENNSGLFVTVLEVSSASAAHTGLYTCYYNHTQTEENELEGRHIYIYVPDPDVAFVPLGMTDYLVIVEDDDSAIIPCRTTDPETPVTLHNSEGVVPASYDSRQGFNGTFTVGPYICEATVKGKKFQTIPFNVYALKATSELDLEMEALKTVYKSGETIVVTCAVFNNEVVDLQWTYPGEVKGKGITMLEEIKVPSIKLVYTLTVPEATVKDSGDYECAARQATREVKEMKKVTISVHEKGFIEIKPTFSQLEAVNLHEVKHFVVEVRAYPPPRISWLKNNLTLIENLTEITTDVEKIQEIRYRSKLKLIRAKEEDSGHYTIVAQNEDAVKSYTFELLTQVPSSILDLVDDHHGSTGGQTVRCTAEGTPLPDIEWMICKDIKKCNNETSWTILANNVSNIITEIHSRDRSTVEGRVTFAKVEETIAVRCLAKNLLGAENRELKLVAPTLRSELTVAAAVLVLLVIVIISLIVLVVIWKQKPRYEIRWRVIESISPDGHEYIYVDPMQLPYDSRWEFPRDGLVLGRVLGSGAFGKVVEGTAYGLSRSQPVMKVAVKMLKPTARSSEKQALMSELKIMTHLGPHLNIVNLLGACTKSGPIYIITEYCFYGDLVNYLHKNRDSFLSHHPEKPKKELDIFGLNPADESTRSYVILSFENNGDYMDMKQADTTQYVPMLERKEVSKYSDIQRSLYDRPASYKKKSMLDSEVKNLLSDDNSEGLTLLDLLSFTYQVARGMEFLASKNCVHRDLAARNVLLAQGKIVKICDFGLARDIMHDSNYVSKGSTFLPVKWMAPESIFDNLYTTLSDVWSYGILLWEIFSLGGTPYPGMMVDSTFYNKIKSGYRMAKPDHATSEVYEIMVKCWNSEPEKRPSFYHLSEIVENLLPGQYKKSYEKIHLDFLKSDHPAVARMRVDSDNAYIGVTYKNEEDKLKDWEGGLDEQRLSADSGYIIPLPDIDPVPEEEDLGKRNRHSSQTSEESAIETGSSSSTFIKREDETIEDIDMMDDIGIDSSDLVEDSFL

| Compound | inhibition at 0.1 µM [1] | inhibition at 0.1 µM [2] | EC50 [3] | EC50 [4] | EC50 [5] | EC50 [6] | EC50 ([7]; 72 h) | EC50 [8] | EC50 [9] | EC50 [10] | inhibition at 0.1 µM [11] | EC50 [12] | EC50 [13] | EC50 [14] | inhibition at 0.1 µM [15] | EC50 [16] | inhibition at 0.1 µM [17] | inhibition at 0.1 µM [18] | inhibition at 0.1 µM [19] | EC50 ([7]; 72 hr, MTT) |
| --- | --- | --- | --- | --- | --- | --- | --- | --- | --- | --- | --- | --- | --- | --- | --- | --- | --- | --- | --- | --- |
| CC(=O)c1cc2cc(NCc3cc(NC(=O)c4ccc(CN5CCC(N(C)C)C5)c(C(F)(F)F)c4)ccc3C)cnc2[nH]1 (centres unmarked) [OR0718, N-{3-[(2-Acetyl-1H-pyrrolo[2,3-b]pyridin-5-ylamino)-methyl]-4-methyl-phenyl}-4-(3-dimethylamino-pyrrolidin-1-ylmethyl)-3-trifluoromethyl-benzamide] | ≥ 50% | ≥ 50% | 100 to 1000 nM | 100 to 1000 nM | ≤ 100 nM | ≤ 100 nM | 100 to 1000 nM | 100 to 1000 nM | 100 to 1000 nM | ≤ 100 nM | ≥ 50% | 100 to 1000 nM | 100 to 1000 nM | 100 to 1000 nM | ≥ 50% | 100 to 1000 nM | ≥ 50% | ≥ 50% | ≥ 50% |  |
| CNC(=O)c1cc2cc(NCc3cc(NC(=O)c4ccc(CN5CCN(C)CC5)c(C(F)(F)F)c4)ccc3C)cnc2[nH]1 [OR0751, 5-{2-Methyl-5-[4-(4-methyl-piperazin-1-ylmethyl)-3-trifluoromethyl-benzoylamino]-benzylamino}-1H-pyrrolo[2,3-b]pyridine-2-carboxylic acid methylamide] | ≥ 50% | ≥ 50% | 100 to 1000 nM | ≤ 100 nM | ≤ 100 nM | ≤ 100 nM |  | ≤ 100 nM | 100 to 1000 nM |  | ≥ 50% | ≤ 100 nM | 100 to 1000 nM | ≤ 100 nM | ≥ 50% | 100 to 1000 nM | ≥ 50% | ≥ 50% | ≥ 50% | ≥ 1000 nM |
| CNC(=O)c1cc2cc(NCc3cc(NC(=O)c4ccc(CN5CCC(N(C)C)C5)c(C(F)(F)F)c4)ccc3C)cnc2[nH]1 (centres unmarked) [OR0752, 5-{5-[4-(3-Dimethylamino-pyrrolidin-1-ylmethyl)-3-trifluoromethyl-benzoylamino]-2-methyl-benzylamino}-1H-pyrrolo[2,3-b]pyridine-2-carboxylic acid methylamide] | ≥ 50% | ≥ 50% | 100 to 1000 nM | 100 to 1000 nM |  | ≤ 100 nM |  | ≤ 100 nM | 100 to 1000 nM |  | ≥ 50% | 100 to 1000 nM | 100 to 1000 nM | 100 to 1000 nM | ≥ 50% | 100 to 1000 nM | ≥ 50% | ≥ 50% | ≥ 50% |  |
